Laboratory results: PubChem BioAssay (NCI)
“And” between values parts separate entries of the source, which are not always exact repeats. Equal values may be shown once.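 Growth conditions: 96-well plates. Treatment: test compound, 48 hours, 5 concentrations. Analysis: linear interpolation between bracketing concentrations; unreached endpoints set to highest concentration. The concentration for 50% growth inhibition is given as GI50. TGI: concentration producing complete growth inhibition.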

tested on: MDA-MB-468 breast; assay: NCI tumour cell line growth inhibition, 48 h

Row | SMILES | GI50 | TGI
1 | CC[C@H](Nc1cc(C)nc(N)n1)c1nc2cccc(NCc3ccc(C(=O)NO)cc3)c2c(=O)n1-c1ccccc1 | 1460 nM | 3240 nM
2 | O=C(/C=C/c1cccc(O)c1)c1cccc(-n2cc(-c3ccc(Cl)cc3)[nH]c2=O)c1 | 1700 nM | 3830 nM
3 | CCCc1n(Cc2ccc3ccccc3c2)c2ccccc2[n+]1Cc1ccc2ccccc2c1 | 130 nM | 716 nM
4 | COC(=O)C(=Cc1ccccc1[N+](=O)[O-])C(=O)OC | 5030 nM | 28200 nM
5 | Cc1ccc2cc3c(N)c4c(C)ccc(C)c4nc3nc2c1 | 1470 nM | 3730 nM
6 | CCCOC(=O)c1ccc2c(c1)[N+](=O)C(C(=O)c1ccccc1)=C(C(F)(F)F)[N+]2=O | 1710 nM | 3510 nM
7 | COC12COC(=O)C1C(c1ccc3c(c1)OCO3)c1cc3c(cc1O2)OCO3 (centres undefined) | 23000 nM | > 100000 nM
8 | Clc1ccc(-c2ccc(CNCC3CCNCC3)o2)c(-c2ccccc2)c1 | 1570 nM | 3250 nM
9 | O=C(Nc1ccc(OCc2nnc(-c3ccc(Cl)cc3)o2)c(F)c1)Nc1ccc(Cl)c(Cl)c1 | 2990 nM | 17700 nM
10 | COc1cc(C(=O)/C=C/c2c(C)n([O-])c3ccc(C(F)(F)F)cc3[n+]2=O)cc(OC)c1OC | 1590 nM | 3490 nM
11 | CC/C(=C(\c1ccc(Cl)cc1)c1ccc(OCCN2CCCCC2)cc1)c1ccc(O)cc1 | 1650 nM | 3320 nM
12 | COc1ccc(C2C(C#N)=C(N)Oc3c2sc2c(C)cccc32)cc1 (centres undefined) | 214 nM | 641 nM
13 | CC(=O)N1CCN([C@H]2CCC[C@@H](NC(=O)c3cc4c(F)ccc(C)c4[nH]3)C2)CC1 | 9060 nM | 37200 nM
14 | Nc1nonc1-c1nc2cnccc2n1C1CCCCC1 | 6940 nM | > 25000 nM
15 | C[C@]12CC[C@@H]3c4ccc(O)cc4CC[C@H]3[C@@H]1CC[C@@H]2NS(=O)(=O)c1cccc(OC(F)(F)F)c1 | 2610 nM | 8010 nM
16 | CC#CC#Cc1cccc(=O)o1 | 1710 nM | 5320 nM
17 | COc1ccc(C(O)c2cc3c(N)c(C(=O)Nc4ccc(Br)cc4)sc3nc2C)cc1 (centres undefined) | 2190 nM | 9090 nM
18 | Cc1ccc2c(c1)c(C1=C(c3cn(C)c4ccccc34)C(=O)NC1=O)cn2C | 1030 nM | > 12600 nM
19 | CCN(CC)CCNc1ccc(C)c2sc3ccccc3c(=O)c12 (tested in a mixture with another compound) | 2060 nM and 1980 nM | 4220 nM and 4300 nM
20 | FC(F)(F)c1cc(Nc2cccc(Oc3ccc(NC4=NCCN4)nc3)c2)ccc1Cl | 1610 nM | 3440 nM
21 | C=CCSSC1N=CNc2nc[nH]c21 (centres undefined) | 319 nM | 14700 nM
22 | CN1CCN(Cc2ccc(NC(=O)c3cncc(C#Cc4cnc5ccc(N6CCN(C)CC6)nn45)c3)cc2C(F)(F)F)CC1 | 1380 nM | 2760 nM
23 | CC(=O)O[C@H]1C(=O)[C@@]2(C)[C@H]([C@H](OC(=O)c3ccccc3)[C@]3(O)C[C@H](OC(=O)[C@H](OC(=O)OC[C@@H]4COC(C)(C)O4)[C@@H](NC(=O)c4ccccc4)c4ccccc4)C(C)=C1C3(C)C)[C@]1(OC(C)=O)CO[C@@H]1C[C@@H]2O | 28 nM | 
24 | COC(=O)/C=C1/SC(=Nc2ccc(C(F)(F)F)cc2)N(CCc2c[nH]c3ccc(O)cc23)C1=O | 2110 nM | 5720 nM
25 | COc1ccc(/C=C/C(=O)c2ccc(NC(=O)CSc3nnc(-c4ccc(OC)c(OC)c4)n3-c3ccccc3)cc2)cc1 | 1960 nM | 4550 nM
26 | CC(C)OC(=O)Nc1ccc(-c2nc(-c3cccc(OCCN4CCOCC4)c3)c(-c3ccnc(Br)c3)[nH]2)cc1 | 2010 nM | 5300 nM
27 | C=CC(=O)N1CC2(CCC(n3nc(-c4ccc(Oc5ccccc5)cc4)c4c(N)ncnc43)CC2)C1 | 244 nM | 1620 nM
28 | CCOC(=O)c1ccc2c(c1)c1c(C)c3cnccc3c(C)c1n2C | 289 nM | 962 nM
29 | CCOC(=O)Nc1nc2cc(OC)c(OC)c(OC)c2s1 | > 100000 nM | > 100000 nM
30 | Cn1cc(C2=C(c3cn(C)c4ccc(OCc5ccccc5)cc34)C(=O)NC2=O)c2ccccc21 | > 25000 nM | > 25000 nM
